Assay results from publication PMC10574094, “Discovery of a SHP2 Degrader with In Vivo Anti-Tumor Activity” (Molecules, 2023).
Residues, ends and D or L forms follow the SMILES beside them. *: point of attachment. Cbz = O=C(OCc1ccccc1)*

Experiments:
SHP2 = target: T1, SHP2 (Homo sapiens, UniProt Q06124); assay: SHP2 degradation by Western blotting in HEK293 cells; assay type: cell-based; parameters: endogenous in cells; host or cells: HEK293; conditions: for effect on P9-induced SHP2 degradation: HEK293, 16 h, 250 nM P9 in combination with 1 µM 3, 10 µM MG132, 1 µM MLN4924, 40 µM VHL-2 or 40 µM Lenalidomide; for SHP2 degradation (in words) / Degradation at 1 μM / Degradation at 10 μM: HEK293 cells; for SHP2 degradation (in words): 1 and 10 µM; for Degradation at 1 μM / Degradation at 10 μM: 16 h treatment
T1 sequence (Q06124 1-593): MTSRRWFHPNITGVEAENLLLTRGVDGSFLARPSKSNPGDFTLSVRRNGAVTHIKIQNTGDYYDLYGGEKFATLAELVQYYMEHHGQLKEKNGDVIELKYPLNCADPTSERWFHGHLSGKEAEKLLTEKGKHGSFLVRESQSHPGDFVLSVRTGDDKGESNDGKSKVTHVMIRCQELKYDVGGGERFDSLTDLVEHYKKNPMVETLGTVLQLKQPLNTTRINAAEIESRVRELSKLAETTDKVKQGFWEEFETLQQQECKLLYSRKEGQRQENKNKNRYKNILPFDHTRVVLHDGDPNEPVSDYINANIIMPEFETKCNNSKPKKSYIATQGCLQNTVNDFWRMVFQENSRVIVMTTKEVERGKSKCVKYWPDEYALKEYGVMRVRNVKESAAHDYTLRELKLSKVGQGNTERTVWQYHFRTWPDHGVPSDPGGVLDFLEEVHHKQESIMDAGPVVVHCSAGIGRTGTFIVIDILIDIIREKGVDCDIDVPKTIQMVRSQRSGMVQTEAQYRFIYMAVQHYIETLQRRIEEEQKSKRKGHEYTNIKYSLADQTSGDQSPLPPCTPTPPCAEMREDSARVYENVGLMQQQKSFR
Experimental: HEK293, SKBR3, U2OS, MCF7 and A549 cells were grown in DMEM supplemented with 10% FBS, penicillin (50 units/mL), and streptomycin (50 μg/mL) in a 37 °C incubator containing 5% CO2. […] For western-blot analysis, protein samples were separated by SDS-PAGE, transferred to nitrocellulose membranes, and incubated overnight at 4 °C with corresponding primary antibodies diluted in 5% BSA in phosphate-buffered saline Tween (PBST). SuperSignal™ West Pico PLUS (PI34580; Thermo Scientific) was used to visualize the antibodies in the bioanalytical imaging system (Azure Biosystems c500). […] Anti-PTP1B (ab244207) antibody was purchased from Abcam. For colony formation assay, a total of approximately 200–500 cells were seeded to each well in a 12-well plate.
Supplemental Figures, Schemes, and Tables:
Figure S1. Western blots of degradation assay for PROTAC screening. (A) Degradation assay of
compo un ds i n Table 1 at 1 μM fo r 16 hours in H EK29 3 cells. (B) Degradation assay of compounds in Table
1 at 10 μM for 16 hours in HEK293 cells. (C) Degradation assay of compounds in Table 2 at 1 μM for 16

full-length SHP2 (1-528) = target: T2, full-length SHP2 (1-528) (Homo sapiens, UniProt Q06124); assay: SHP2 allosteric inhibition assay (DiFMUP substrate); assay type: biochemical; conditions: full length SHP2, enzymatic assay
T2 construct: The SHP2 protein (Aa 1–528) was cloned into a pET-21a(+) vector; His; made in house; host or cells: E. coli BL21(DE3)
T2 sequence (Q06124 1-528): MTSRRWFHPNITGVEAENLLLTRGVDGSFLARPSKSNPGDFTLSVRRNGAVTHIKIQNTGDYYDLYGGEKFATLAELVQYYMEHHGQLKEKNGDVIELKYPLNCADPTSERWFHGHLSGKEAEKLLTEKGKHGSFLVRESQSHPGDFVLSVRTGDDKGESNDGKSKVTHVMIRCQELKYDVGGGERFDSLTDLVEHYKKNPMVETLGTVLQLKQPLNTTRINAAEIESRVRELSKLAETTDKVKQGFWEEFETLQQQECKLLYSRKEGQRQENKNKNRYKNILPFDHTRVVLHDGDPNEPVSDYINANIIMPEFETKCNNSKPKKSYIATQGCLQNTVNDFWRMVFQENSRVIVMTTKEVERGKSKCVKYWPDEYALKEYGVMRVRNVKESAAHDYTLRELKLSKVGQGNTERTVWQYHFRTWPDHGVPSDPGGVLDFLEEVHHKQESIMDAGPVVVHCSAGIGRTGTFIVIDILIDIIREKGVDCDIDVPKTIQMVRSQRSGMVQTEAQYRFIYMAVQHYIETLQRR
Experimental: The SHP2 protein (Aa 1–528) was cloned into a pET-21a(+) vector. Bacterial BL21(DE3) (Novagen) was used as an expression host, and the induction of protein expression was carried out in LB media with 1 mM IPTG at 18 °C overnight. Cell pellets were stored at −80 °C for subsequent protein purification. Protein purification was conducted at 4 °C. Frozen cell pellets were lysed by sonication in 40 mL cold lysis buffer (50 mM Tris-HCl, pH 8.0, 150 mM NaCl, 5 mM imidazole, and 1 mM PMSF) per liter cell pellet. Cell lysates were clarified by centrifuging for 15 min at 6000 rpm. The supernatant was incubated with HisPur Ni-NTA resin (Thermo Scientific, Waltham, MA, USA) for 2 h, and then packed onto a column and washed with 50 resin volume of buffer A (50 mM Tris-HCl, pH 8.0, 500 mM NaCl, 5 mM imidazole). The HIS-tagged proteins were eluted with Buffer B (50 mM Tris-HCl, pH = 8.0, 500 mM NaCl, 300 mM imidazole,). Pooled HIS-protein-containing fractions were concentrated, loaded onto a HiLoad 26/600 Superdex 75 column (GE Healthcare Biosciences, Piscataway, NJ, USA), and eluted with storage buffer (50 mM Tris-HCl, pH 8.0, 150 mM NaCl, 1 mM DTT, 10% glycerol). Proteins used for inhibition assays were purified using Ni-NTA resin (Qiagen, Hilden, Germany) followed by size exclusion column chromatography (ÄKTA pure, Cytiva, Marlborough, MA, USA) and the purity was determined to be >95% by SDS-PAGE and Coomassie staining. The protein was aliquoted and stored at −80 °C.
The catalytic activity of SHP2 (1-528) was assayed with 6,8-Difluoro-4-Methylumbelliferyl Phosphate (DiFMUP, Invitrogen, cat# D6567) as a substrate in 3,3-Dimethylglutaric acid (DMG) buffer (50 mM DMG, pH 7.0, 1 mM EDTA, 18 mM NaCl, 0.01% Triton X-100) at 25 °C. To determine the IC50 values, the assays were performed in 96-well plates (Corning Costar 3915). Series diluted compounds were incubated with 0.5 nM of SHP2 and 0.5 μM of peptide IRS1_pY1172(dPEG8)pY1222 (sequence H2N-LN(pY)IDLDLV(dPEG8)LST(pY)ASINFQK-amide). After 30 min incubation at room temperature, the substrate DiFMUP was added to the reaction (200 μM final concentration, total reaction volume is […]) and incubated at 25 °C for 10 min. The reaction was then quenched by adding 40 μL of 160 μM bpV(Phen) (Sigma–Aldrich, cat# SML0889) solution. The fluorescence signal was monitored with a CLARIOstar Plus Microplate Spectrophotometer (BMG Labtech) using excitation and emission wavelengths of 340 and 450 nm, respectively. The inhibitordose-response curves were analyzed using normalized IC50 regression curve fitting with control-based normalization. Data were fitted using Prism GraphPad 9.2.0.

SMILES | IC50 (full-length SHP2 (1-528)) | Degradation at 1 μM (SHP2) | Degradation at 10 μM (SHP2) | effect on P9-induced SHP2 degradation (SHP2) | SHP2 degradation (in words) (SHP2)
CC(C)C[C@@H](C=O)NC(=O)[C@H](CC(C)C)NC(=O)[C@H](CC(C)C)NC(=O)OCc1ccccc1 [MG-132, reference compound] (Cbz-Leu-Leu-Leu-aldehyde) | – | – | – | markedly reduced the extent of SHP2 degradation | –
NS(=O)(=O)OC[C@@H]1C[C@@H](n2ccc3c(N[C@H]4CCc5ccccc54)ncnc32)C[C@@H]1O [MLN-4924, reference compound] | – | – | – | markedly reduced the extent of SHP2 degradation | –
Cc1ncsc1-c1ccc([C@H](C)NC(=O)[C@@H]2C[C@@H](O)CN2C(=O)[C@@H](NC(=O)CCOCCOCCOCCNC(=O)CCCCCC2(CN)CCN(c3cnc(Sc4cccc(Cl)c4Cl)c(N)n3)CC2)C(C)(C)C)cc1 [P3, (2S,4R)-1-((S)-22-(1-(6-amino-5-((2,3-dichlorophenyl)thio)pyrazin-2-yl)-4-(aminomethyl)piperidin-4-yl)-2-(tert-butyl)-4,17-dioxo-7,10,13-trioxa-3,16-diazadocosanoyl)-4-hydroxy-N-((S)-1-(4-(4-methylthiazol-5-yl)phenyl)ethyl)pyrrolidine-2-carboxamide] | 158 ± 26.5 nM | <10% | <10% | – | did not induce significant degradation of SHP2
Cc1ncsc1-c1ccc([C@H](C)NC(=O)[C@@H]2C[C@@H](O)CN2C(=O)[C@@H](NC(=O)CCOCCOCCOCCOCCNC(=O)CCCCCC2(CN)CCN(c3cnc(Sc4cccc(Cl)c4Cl)c(N)n3)CC2)C(C)(C)C)cc1 [P4, (2S,4R)-1-((S)-25-(1-(6-amino-5-((2,3-dichlorophenyl)thio)pyrazin-2-yl)-4-(aminomethyl)piperidin-4-yl)-2-(tert-butyl)-4,20-dioxo-7,10,13,16-tetraoxa-3,19-diazapentacosanoyl)-4-hydroxy-N-((S)-1-(4-(4-methylthiazol-5-yl)phenyl)ethyl)pyrrolidine-2-carboxamide] | 156 ± 15.8 nM | <10% | <10% | – | did not induce significant degradation of SHP2
Cc1ncsc1-c1ccc([C@H](C)NC(=O)[C@@H]2C[C@@H](O)CN2C(=O)[C@@H](NC(=O)CCOCCOCCOCCOCCOCCNC(=O)CCCCCC2(CN)CCN(c3cnc(Sc4cccc(Cl)c4Cl)c(N)n3)CC2)C(C)(C)C)cc1 [P5, (2S,4R)-1-((S)-28-(1-(6-amino-5-((2,3-dichlorophenyl)thio)pyrazin-2-yl)-4-(aminomethyl)piperidin-4-yl)-2-(tert-butyl)-4,23-dioxo-7,10,13,16,19-pentaoxa-3,22-diazaoctacosanoyl)-4-hydroxy-N-((S)-1-(4-(4-methylthiazol-5-yl)phenyl)ethyl)pyrrolidine-2-carboxamide] | 166 ± 11.9 nM | <10% | <10% | – | did not induce significant degradation of SHP2
Nc1cccc2c1CN(C1CCC(=O)NC1=O)C2=O (stereo not shown) [lenalidomide, reference compound] | – | – | – | did not affect the SHP2 degradation induced by P9 | –

The next lines start with results.

IC50 (full-length SHP2 (1-528)) | Degradation at 1 μM (SHP2) | Degradation at 10 μM (SHP2) | SMILES | effect on P9-induced SHP2 degradation (SHP2) | SHP2 degradation (in words) (SHP2)
119 ± 25.4 nM | – | – | Cc1ncsc1-c1ccc([C@H](C)NC(=O)[C@@H]2C[C@@H](O)CN2C(=O)[C@@H](NC(=O)CCCCCCCN2CCN(C(=O)CCCCCC3(CN)CCN(c4cnc(Sc5cccc(Cl)c5Cl)c(N)n4)CC3)CC2)C(C)(C)C)cc1 [P7, (2S,4R)-1-((S)-2-(8-(4-(6-(1-(6-amino-5-((2,3-dichlorophenyl)thio)pyrazin-2-yl)-4-(aminomethyl)piperidin-4-yl)hexanoyl)piperazin-1-yl)octanamido)-3,3-dimethylbutanoyl)-4-hydroxy-N-((S)-1-(4-(4-methylthiazol-5-yl)phenyl)ethyl)pyrrolidine-2-carboxamide] | – | –
104 ± 9.3 nM | – | – | Cc1ncsc1-c1ccc([C@H](C)NC(=O)[C@@H]2C[C@@H](O)CN2C(=O)[C@@H](NC(=O)CCCCCCCCN2CCN(C(=O)CCCCCC3(CN)CCN(c4cnc(Sc5cccc(Cl)c5Cl)c(N)n4)CC3)CC2)C(C)(C)C)cc1 [P8, (2S,4R)-1-((S)-2-(9-(4-(6-(1-(6-amino-5-((2,3-dichlorophenyl)thio)pyrazin-2-yl)-4-(aminomethyl)piperidin-4-yl)hexanoyl)piperazin-1-yl)nonanamido)-3,3-dimethylbutanoyl)-4-hydroxy-N-((S)-1-(4-(4-methylthiazol-5-yl)phenyl)ethyl)pyrrolidine-2-carboxamide] | – | –
111 ± 8.2 nM | – | – | Cc1ncsc1-c1ccc([C@H](C)NC(=O)[C@@H]2C[C@@H](O)CN2C(=O)[C@@H](NC(=O)CCCCCCCCCCN2CCN(C(=O)CCCCCC3(CN)CCN(c4cnc(Sc5cccc(Cl)c5Cl)c(N)n4)CC3)CC2)C(C)(C)C)cc1 [P10, (2S,4R)-1-((S)-2-(11-(4-(6-(1-(6-amino-5-((2,3-dichlorophenyl)thio)pyrazin-2-yl)-4-(aminomethyl)piperidin-4-yl)hexanoyl)piperazin-1-yl)undecanamido)-3,3-dimethylbutanoyl)-4-hydroxy-N-((S)-1-(4-(4-methylthiazol-5-yl)phenyl)ethyl)pyrrolidine-2-carboxamide] | – | –
90 nM | – | – | NCC1(CCCCCC(=O)O)CCN(c2cnc(Sc3cccc(Cl)c3Cl)c(N)n2)CC1 [compound 4] | – | –
